Results taken from patent publication US7396837B2, “Antitumoral analogs of lamellarins” (Pharma Mar, S.A.U., priority 2002, dated 2008).
Read-outs that look alike come from different tables or passages of the source.

Key:
Assay type in all cases: cell-based
[1] = test system: LoVo; experiment: SRB colorimetric cell growth inhibition assay, LoVo; settings: Homo sapiens, LoVo; for CC50: cell killing (cytotoxic effect); for GI50: GI=growth inhibition, read-out: GI50 LOVO; for IC (TGI): total growth inhibition (cytostatic effect), read-out: TGI LOVO
Outline: (§1)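 Quantitation uses the sulforhodamine B reaction on cells exposed to sample for the whole assay period; results (mean ± SD, n = 3 wells) yield GI, TGI and LC.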

[2] = test system: SK-BR-3; experiment: SRB colorimetric cell growth inhibition assay, SK-BR-3; settings: Homo sapiens; for GI50: GI=growth inhibition, read-out: GI50 SK-BR-3; for IC (TGI): total growth inhibition (cytostatic effect), read-out: TGI SK-BR-3; for CC50: cell killing (cytotoxic effect)
Outline: as §1

[3] = test system: IGROV; experiment: SRB colorimetric cell growth inhibition assay, IGROV; settings: Homo sapiens, IGROV; for CC50: cell killing (cytotoxic effect); for GI50: GI=growth inhibition, read-out: GI50 IGROV; for IC (TGI): total growth inhibition (cytostatic effect), read-out: TGI IGROV
Outline: as §1

[4] = test system: DU-145; experiment: SRB colorimetric cell growth inhibition assay, DU-145; settings: Homo sapiens; for GI50: GI=growth inhibition, read-out: GI50 DU-145; for IC (TGI): total growth inhibition (cytostatic effect), read-out: TGI DU-145; for CC50: cell killing (cytotoxic effect)
Outline: as §1

[5] = test system: K-562; experiment: SRB colorimetric cell growth inhibition assay, K-562; settings: Homo sapiens; for GI50: GI=growth inhibition, read-out: GI50 K-562; for IC (TGI): total growth inhibition (cytostatic effect), read-out: TGI K-562; for CC50: cell killing (cytotoxic effect)
Outline: as §1

[6] = test system: HeLa-APL; experiment: SRB colorimetric cell growth inhibition assay, HeLa-APL (aplidine resistant); settings: Homo sapiens; for GI50: read-out: GI50 HELA-APL; for CC50: cell killing (cytotoxic effect); for IC (TGI): read-out: TGI HELA-APL
Outline: as §1

[7] = test system: HeLa; experiment: SRB colorimetric cell growth inhibition assay, HeLa; settings: Homo sapiens, HeLa; for CC50: cell killing (cytotoxic effect); for IC (TGI): read-out: TGI HELA; for GI50: GI=growth inhibition, read-out: GI50 HELA
Outline: as §1

[8] = test system: LNCaP; experiment: SRB colorimetric cell growth inhibition assay, LNCaP; settings: Homo sapiens, LNCaP; for GI50: GI=growth inhibition, read-out: GI50 LN-caP; for IC (TGI): total growth inhibition (cytostatic effect), read-out: TGI LN-caP; for CC50: cell killing (cytotoxic effect)
Outline: as §1

[9] = test system: HT-29; experiment: SRB colorimetric cell growth inhibition assay, HT-29; settings: Homo sapiens; for GI50: GI=growth inhibition, read-out: GI50 HT-29; for IC (TGI): total growth inhibition (cytostatic effect), read-out: TGI HT-29; for CC50: cell killing (cytotoxic effect)
Outline: as §1

[10] = test system: IGROV-ET; experiment: SRB colorimetric cell growth inhibition assay, IGROV-ET (ET-743 resistant); settings: Homo sapiens; for GI50: GI=growth inhibition, read-out: GI50 IGROV-ET; for IC (TGI): total growth inhibition (cytostatic effect), read-out: TGI IGROV-ET; for CC50: cell killing (cytotoxic effect)
Outline: as §1

[11] = test system: SK-MEL-28; experiment: SRB colorimetric cell growth inhibition assay, SK-MEL-28; settings: Homo sapiens; for GI50: GI=growth inhibition, read-out: GI50 MEL-28; for IC (TGI): total growth inhibition (cytostatic effect), read-out: TGI MEL-28; for CC50: cell killing (cytotoxic effect)
Outline: as §1

[12] = test system: A-549; experiment: SRB colorimetric cell growth inhibition assay, A-549; settings: Homo sapiens; for GI50: GI=growth inhibition, read-out: GI50 A-549; for IC (TGI): total growth inhibition (cytostatic effect), read-out: TGI A-549; for CC50: cell killing (cytotoxic effect)
Outline: as §1

[13] = test system: PANC-1; experiment: SRB colorimetric cell growth inhibition assay, PANC-1; settings: Homo sapiens; for GI50: GI=growth inhibition, read-out: GI50 PANC-1; for IC (TGI): total growth inhibition (cytostatic effect), read-out: TGI PANC-1; for CC50: cell killing (cytotoxic effect)
Outline: as §1

[14] = test system: LoVo-Dox; experiment: SRB colorimetric cell growth inhibition assay, LoVo-Dox (MDR); settings: Homo sapiens; for GI50: GI=growth inhibition, read-out: GI50 LOVO-DOX; for IC (TGI): total growth inhibition (cytostatic effect), read-out: TGI LOVO-DOX; for CC50: cell killing (cytotoxic effect)
Outline: as §1

COc1cc(-c2c3c4cc(OC)c(OC(=O)[C@@H](N)CO)cc4oc(=O)c3n3ccc4c(OC(=O)[C@@H](N)CO)c(OC)c(OC)cc4c23)ccc1OC(=O)[C@@H](N)CO [Compound 9]
CC50 ([1]; read-out: LC50 LOVO, LOVO): 2.3 µM | GI50 [1]: 0.243 µM | IC (TGI) [1]: 0.584 µM | GI50 ([2]; SK-BR-3, SK-BR-3): 0.174 µM | IC (TGI) ([2]; SK-BR-3, SK-BR-3): 0.374 µM | CC50 ([2]; SK-BR-3, read-out: LC50 SK-BR-3, SK-BR-3): 0.806 µM | CC50 ([3]; read-out: LC50 IGROV, IGROV): 3 µM | GI50 [3]: 0.182 µM | IC (TGI) [3]: 0.909 µM | GI50 ([4]; DU-145, DU-145): 0.0543 µM | IC (TGI) ([4]; DU-145, DU-145): 0.169 µM | CC50 ([4]; DU-145, read-out: LC50 DU-145, DU-145): 0.615 µM | GI50 ([5]; K562, K-562): 0.0473 µM | IC (TGI) ([5]; K562, K-562): 0.311 µM | CC50 ([5]; K562, read-out: LC50 K-562, K-562): 4.18 µM | GI50 [6]: 0.282 µM | CC50 ([6]; read-out: LC50 HELA-APL, HELA-APL): 3.83 µM | IC (TGI) [6]: 1.23 µM | CC50 ([7]; read-out: LC50 HELA, HELA): 4.06 µM | IC (TGI) [7]: 0.459 µM | GI50 [7]: 0.107 µM | GI50 ([8]; LN-caP): 0.174 µM | IC (TGI) ([8]; LN-caP): 0.422 µM | CC50 ([8]; read-out: LC50 LN-caP, LN-caP): 1.38 µM | GI50 ([9]; HT-29, HT-29): 1.61 µM | IC (TGI) ([9]; HT-29, HT-29): 3.28 µM | CC50 ([9]; HT-29, read-out: LC50 HT-29, HT-29): 6.66 µM | GI50 ([10]; IGROV-ET): 0.132 µM | IC (TGI) ([10]; IGROV-ET): 0.98 µM | CC50 ([10]; read-out: LC50 IGROV-ET, IGROV-ET): 0.493 µM | GI50 ([11]; SK-MEL-28, MEL-28): 0.134 µM | IC (TGI) ([11]; SK-MEL-28, MEL-28): 0.516 µM | CC50 ([11]; SK-MEL-28, read-out: LC50 MEL-28, MEL-28): 2.11 µM | GI50 ([12]; A549, A-549): 0.323 µM | IC (TGI) ([12]; A549, A-549): 1.15 µM | CC50 ([12]; A549, read-out: LC50 A-549, A-549): 6.76 µM | GI50 ([13]; PANC-1, PANC-1): 0.2 µM | IC (TGI) ([13]; PANC-1, PANC-1): 1.56 µM | CC50 ([13]; PANC-1, read-out: LC50 PANC-1, PANC-1): 4.91 µM | GI50 ([14]; LOVO-DOX): 0.388 µM | IC (TGI) ([14]; LOVO-DOX): 1.14 µM | CC50 ([14]; read-out: LC50 LOVO-DOX, LOVO-DOX): 3.63 µM

COc1cc2ccn3c(c(-c4ccc(OC(=O)[C@@H](NC(=O)OC(C)(C)C)C(C)C)c(OC)c4)c4c5cc(OC)c(OC(=O)[C@@H](NC(=O)OC(C)(C)C)C(C)C)cc5oc(=O)c43)c2cc1OC [Compound 15]
GI50 [1]: 1.68 µM | CC50 ([1]; read-out: LC50 LOVO): 11 µM | IC (TGI) [1]: 4.96 µM | GI50 ([2]; SK-BR-3, SK-BR-3): 0.0561 µM | CC50 ([2]; SK-BR-3, SK-BR-3, read-out: LC50 SK-BR-3): 5.84 µM | IC (TGI) ([2]; SK-BR-3, SK-BR-3): 0.635 µM | GI50 [3]: 0.0862 µM | CC50 ([3]; read-out: LC50 IGROV): 9.76 µM | IC (TGI) [3]: 2.03 µM | GI50 ([4]; DU-145, DU-145): 0.0685 µM | CC50 ([4]; DU-145, DU-145, read-out: LC50 DU-145): 11 µM | IC (TGI) ([4]; DU-145, DU-145): 3.08 µM | GI50 ([5]; K562, K-562): 1.6 µM | CC50 ([5]; K562, K-562, read-out: LC50 K-562): 9.57 µM | IC (TGI) ([5]; K562, K-562): 3.91 µM | GI50 ([6]; HELA-APL, GI=growth inhibition): 2.43 µM | CC50 ([6]; HELA-APL, read-out: LC50 HELA-APL): 11 µM | IC (TGI) ([6]; HELA-APL, total growth inhibition (cytostatic effect)): 5.53 µM | GI50 [7]: 0.0579 µM | CC50 ([7]; read-out: LC50 HELA): 7.81 µM | IC (TGI) ([7]; total growth inhibition (cytostatic effect)): 1.41 µM | GI50 ([8]; LN-caP): 0.056 µM | CC50 ([8]; LN-caP, read-out: LC50 LN-caP): 3.93 µM | IC (TGI) ([8]; LN-caP): 0.609 µM | GI50 ([9]; HT-29, HT-29): 0.0473 µM | CC50 ([9]; HT-29, HT-29, read-out: LC50 HT-29): 9.17 µM | IC (TGI) ([9]; HT-29, HT-29): 0.111 µM | GI50 ([10]; IGROV-ET): 6.87 µM | CC50 ([10]; IGROV-ET, read-out: LC50 IGROV-ET): 11 µM | IC (TGI) ([10]; IGROV-ET): 11 µM | GI50 ([11]; SK-MEL-28, MEL-28): 0.0482 µM | CC50 ([11]; SK-MEL-28, MEL-28, read-out: LC50 MEL-28): 7.24 µM | IC (TGI) ([11]; SK-MEL-28, MEL-28): 1.64 µM | GI50 ([12]; A549, A-549): 0.0541 µM | CC50 ([12]; A549, A-549, read-out: LC50 A-549): 11 µM | IC (TGI) ([12]; A549, A-549): 1.46 µM | GI50 ([13]; PANC-1, PANC-1): 1.54 µM | CC50 ([13]; PANC-1, PANC-1, read-out: LC50 PANC-1): 11 µM | IC (TGI) ([13]; PANC-1, PANC-1): 5.26 µM | GI50 ([14]; LOVO-DOX): 11 µM | CC50 ([14]; LOVO-DOX, read-out: LC50 LOVO-DOX): 11 µM | IC (TGI) ([14]; LOVO-DOX): 11 µM
